Measured values reported in patent publication US20250214942A1, “INHIBITORS OF RECEPTOR INTERACTING PROTEIN KINASE I FOR THE TREATMENT OF DISEASE” (Board of Regents, The University of Texas System, priority 2019, published 2025).
Like-named read-outs stand apart in the source and are kept apart here.

Experiments:
[1] = test system: human monocytic cell line U937; assay: Human U937 cellular necroptosis assay (TNFalpha + z-VAD-FMK, Cell Titer-Glo viability); assay type: cell-based; settings: U937 cells, 25 ng/mL human TNFalpha + 25 μM z-VAD-FMK, read-out: hU937 Avg IC50
In short: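 Cells resuspended in phenol red-free RPMI with 10% FBS, stimulated with 25 ng/mL human TNFalpha plus 25 μM z-VAD-FMK, then given serially diluted compound for 22 h at 37° C, 5% CO2. Viability by Cell Titer-Glo 2.0 luminescence; IC50 from four-parameter logistic fit, averaged across runs.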

RIPK1 = RIPK1 (Homo sapiens (Human), UniProt Q13546); assay: ADP-Glo kinase assay (RIPK1 activity, conversion of ATP to ADP); assay type: biochemical; settings: for IC50: 5 nM RIPK1, 50 μM ATP, 6 h reaction, read-out: RIPK1 Enzyme Avg IC50; for observed potency relative to the other enantiomer: enantiomers separated by SFC, assay not named
In short: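 ADP-Glo luminescence of ATP-to-ADP conversion by 5 nM RIPK1 with 50 μM ATP (final), 6 h reaction after 10 min compound preincubation at rt. Buffer was 50 mM HEPES pH 7.5, 30 mM MgCl2, 0.05% BSA, 0.02% CHAPS. IC50 from four-parameter logistic fit.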

Sequence of RIPK1 (Q13546 1-327): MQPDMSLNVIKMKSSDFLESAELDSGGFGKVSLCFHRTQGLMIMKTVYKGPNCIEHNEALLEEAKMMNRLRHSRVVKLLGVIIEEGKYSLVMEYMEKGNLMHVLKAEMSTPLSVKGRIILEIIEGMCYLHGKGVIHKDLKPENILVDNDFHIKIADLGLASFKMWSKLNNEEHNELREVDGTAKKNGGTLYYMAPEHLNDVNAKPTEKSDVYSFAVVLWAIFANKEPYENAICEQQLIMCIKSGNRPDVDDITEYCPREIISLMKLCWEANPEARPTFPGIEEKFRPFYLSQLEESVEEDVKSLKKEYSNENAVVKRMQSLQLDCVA

| IC50 (RIPK1) | observed potency relative to the other enantiomer (RIPK1) | Compound | IC50 ([1]; Homo sapiens, U-937, 22 h) | IC50 ([1]; 22 h) |
| --- | --- | --- | --- | --- |
| 19 nM | – | N#Cc1ccc2cn(CC34CC(C(=O)N5N=CCC5c5cc(F)cc(F)c5)(C3)C4)nc2c1 (stereo not drawn) [Example 56, 2-((3-(5-(3,5-difluorophenyl)-4,5-dihydro-1H-pyrazole-1-carbonyl)bicyclo[1.1.1]-pentan-1-yl)methyl)-2H-indazole-6-carbonitrile] | 63 nM | – |
| 109 nM | – | N#Cc1cccc(OCC23CC(C(=O)N4CC(F)CC4c4cccc(F)c4)(C2)C3)n1 (stereo not drawn) [Example 94, 6-((3-(4-fluoro-2-(3-fluoro-phenyl)pyrrolidine-1-carbonyl)bicyclo[1.1.1]-pentan-1-yl)methoxy)-picolinonitrile] | 994 nM | – |
| 11 nM | – | O=C(N1N=CCC1c1ccccc1)C12CC(Cn3ncc4c(F)cccc43)(C1)C2 (stereo not drawn) [Example 81, (3-((4-fluoro-1H-indazol-1-yl)methyl)bicyclo[1.1.1]-pentan-1-yl)(5-phenyl-4,5-dihydro-1H-pyrazol-1-yl)-methanone] | 12 nM | – |
| 38 nM | – | Cc1cnn(CC23CC(C(=O)N4N=CCC4c4cc(F)cc(F)c4)(C2)C3)c1C#N (stereo not drawn) [Example 156, 1-((3-(5-(3,5-difluorophenyl)-4,5-dihydro-1H-pyrazole-1-carbonyl)bicyclo[1.1.1]-pentan-1-yl)methyl)-4-methyl-1H-pyrazole-5-carbonitrile] | 159 nM | – |
| 33 nM | – | N#Cc1cc2cnn(CC34CC(C(=O)N5N=CCC5c5cc(F)cc(F)c5)(C3)C4)c2cn1 (stereo not drawn) [Example 213, 1-((3-(5-(3,5-difluorophenyl)-4,5-dihydro-1H-pyrazole-1-carbonyl)bicyclo[1.1.1]pentan-1-yl)methyl)-1H-pyrazolo[3,4-c]pyridine-5-carbonitrile] | 63 nM | – |
| 78 nM | – | O=C(N1N=CCC1c1cc(F)cc(F)c1)C12CC(Cn3cc(C(F)(F)F)cn3)(C1)C2 (stereo not drawn) [Example 72, (5-(3,5-difluorophenyl)-4,5-dihydro-1H-pyrazol-1-yl)(3-((4-(trifluoromethyl)-1H-pyrazol-1-yl)methyl)bicyclo-[1.1.1]pentan-1-yl)methanone] | 98 nM | – |
| 308 nM | – | N#Cc1cnn(CC23CC(C(=O)N4N=CCC4c4cncc(F)c4)(C2)C3)c1 (stereo not drawn) [Example 166, 1-((3-(5-(5-fluoropyridin-3-yl)-4,5-dihydro-1H-pyrazole-1-carbonyl)bicyclo[1.1.1]-pentan-1-yl)methyl)-1H-pyrazole-4-carbonitrile] | 1970 nM | – |
| 11 nM | – | O=C(N1N=CCC1c1cc(F)cc(F)c1)C12CC(Cn3ncc4c(F)cccc43)(C1)C2 (stereo not drawn) [Example 22, (5-(3,5-Difluorophenyl)-4,5-dihydro-1H-pyrazol-1-yl)(3-((4-fluoro-1H-indazol-1-yl)methyl)bicyclo[1.1.1]pentan-1-yl)methanone] | 5 nM | – |
| 122 nM | – | N#Cc1cccc2cnn(CC34CC(C(=O)N5N=CCC5c5cc(F)cc(F)c5)(C3)C4)c12 (stereo not drawn) [Example 143, 1-((3-(5-(3,5-difluorophenyl)-4,5-dihydro-1H-pyrazole-1-carbonyl)bicyclo[1.1.1]-pentan-1-yl)methyl)-1H-indazole-7-carbonitrile] | 495 nM | – |
| 22 nM | – | N#Cc1ccc2c(cnn2CC23CC(C(=O)N4N=CCC4c4cnccn4)(C2)C3)c1 (stereo not drawn) [Example 51, 1-((3-(5-(pyrazin-2-yl)-4,5-dihydro-1H-pyrazole-1-carbonyl)bicyclo[1.1.1]pentan-1-yl)methyl)-1H-indazole-5-carbonitrile] | 40 nM | – |
| 2270 nM | – | O=C(N1N=CCC1c1cc(F)cc(F)c1)C12CC(CO)(C1)C2 (stereo not drawn) [Example 208, (5-(3,5-Difluorophenyl)-4,5-dihydro-1H-pyrazol-1-yl)(3-(hydroxymethyl)bicyclo[1.1.1]pentan-1-yl)methanone] | 4300 nM | – |
| – | more potent isomer | Cc1cc(F)c([C@@H]2CC=NN2C(=O)C23CC(COc4cnc(C#N)cn4)(C2)C3)cc1F [Example 197, (S)-5-((3-(5-(2,5-difluoro-4-methylphenyl)-4,5-dihydro-1H-pyrazole-1-carbonyl)bicyclo[1.1.1]pentan-1-yl)methoxy)pyrazine-2-carbonitrile] | 0.77 nM | – |
| – | less potent isomer | N#Cc1cnc(OCC23CC(C(=O)N4N=CC[C@@H]4c4cc(F)cc(F)c4)(C2)C3)cn1 [Example 200, (R)-5-((3-(5-(3,5-difluorophenyl)-4,5-dihydro-1H-pyrazole-1-carbonyl)bicyclo[1.1.1]pentan-1-yl)methoxy)pyrazine-2-carbonitrile] | 8560 nM | – |
| 433 nM | – | COc1ccc(C(F)C23CC(C(=O)N4N=CCC4c4cc(F)cc(F)c4)(C2)C3)cc1 (stereo not drawn) [Example 228, (5-(3,5-difluorophenyl)-4,5-dihydro-1H-pyrazol-1-yl)(3-(fluoro(4-methoxyphenyl)-methyl)bicyclo[1.1.1]pentan-1-yl)methanone] | 2400 nM | – |
| 20 nM | – | O=C(N1N=CCC1c1cc(F)cc(F)c1)C12CC(CCl)(C1)C2 (stereo not drawn) [Example 11, (3-(Chloromethyl)bicyclo[1.1.1]pentan-1-yl)(5-(3,5-difluorophenyl)-4,5-dihydro-1H-pyrazol-1-yl)methanone] | 18 nM | – |
| 306 nM | – | N#Cc1cnn(CC23CC(C(=O)N4N=CCC4c4cnccn4)(C2)C3)c1 (stereo not drawn) [Example 167, 1-((3-(5-(pyrazin-2-yl)-4,5-dihydro-1H-pyrazole-1-carbonyl)bicyclo[1.1.1]-pentan-1-yl)methyl)-1H-pyrazole-4-carbonitrile] | 1880 nM | – |
| 19 nM | – | O=C(N1N=CCC1c1cc(F)cc(F)c1)C12CC(COc3cccc(F)c3Cl)(C1)C2 (stereo not drawn) [Example 332, (3-((2-chloro-3-fluoro-phenoxy)methyl)bicyclo-[1.1.1]pentan-1-yl)(5-(3,5-difluorophenyl)-4,5-dihydro-1H-pyrazol-1-yl)methanone] | 33 nM | – |
| 34 nM | – | O=C(N1N=CCC1c1cc(F)cc(F)c1)C12CC(Cn3nc(Cl)c4ccccc43)(C1)C2 (stereo not drawn) [Example 141, (3-((3-chloro-1H-indazol-1-yl)methyl)bicyclo[1.1.1]-pentan-1-yl)(5-(3,5-difluorophenyl)-4,5-dihydro-1H-pyrazol-1-yl)methanone] | 58 nM | – |
| 865 nM | – | N#Cc1cncc(C2CC=NN2C(=O)C23CC(Cn4cc(C#N)cn4)(C2)C3)c1 (stereo not drawn) [Example 168, 5-(1-(3-((4-cyano-1H-pyrazol-1-yl)methyl)-bicyclo[1.1.1]pentane-1-carbonyl)-4,5-dihydro-1H-pyrazol-5-yl)nicotinonitrile] | 6190 nM | – |
| 49 nM | – | N#Cc1cc(OCC23CC(C(=O)N4N=CCC4c4cncc(F)c4)(C2)C3)ncn1 (stereo not drawn) [Example 126, 6-((3-(5-(5-fluoropyridin-3-yl)-4,5-dihydro-1H-pyrazole-1-carbonyl)bicyclo[1.1.1]-pentan-1-yl)-methoxy)pyrimidine-4-carbonitrile] | 440 nM | – |

| Compound | IC50 (RIPK1) | observed potency relative to the other enantiomer (RIPK1) | IC50 ([1]; Homo sapiens, U-937, 22 h) | IC50 ([1]; 22 h) |
| --- | --- | --- | --- | --- |
| 1-((3-(5-(3,5-difluorophenyl)-4,5-dihydro-1H-pyrazole-1-carbonyl)bicyclo[1.1.1]-pentan-1-yl)methyl)-1H-benzo[d]imidazole-6-carbonitrile and 1-((3-(5-(3,5-difluorophenyl)-4,5-dihydro-1H-pyrazole-1-carbonyl)bicyclo[1.1.1]-pentan-1-yl)methyl)-1H-benzo[d]imidazole-5-carbonitrile [Example 186] | 113 nM | – | – | 682 nM |
